Results taken from US6218384A, “3-Oxo-pyrido(1,2-a)benzimidazole-4-carboxyl and 4-oxo-azepino(1,2-a)benzimidazole-5-carboxyl derivatives useful in treating central nervous system disorders” (Ortho-McNeil Pharmaceutical, Inc., priority 1997, dated 2001).
Where two headings read alike, the source gives them in different places.

Columns and labels:
[1] = Suppression of metrazol-induced convulsions; format: in vivo, male CD1 mice; conditions: mice; for ED50: Mus musculus, 0.5 h; for Metrazol (ip) ED50: 30 min
[2] = Suppression of anxiety (punished licking, conflict test) in the adult male rat; format: in vivo, male rats
Outline: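 Rats were deprived of water for 48 h and food for 24 h, with unpunished training the day before. Testing began at expected peak drug activity: 3-min session, every 20th lick punished by a 0.2-s shock.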

[3] = biological target: benzodiazepine site of the GABA-A receptor; experiment: Benzodiazepine Receptor Binding Assay (inhibition of 3H-flunitrazepam binding); conditions: ca. 3 nM 3H-flunitrazepam
[4] = Horizontal Screen Test for Motor Coordination; format: in vivo, male CD1 mice; conditions: Table 1, mice, parenteral, >300 = active dose not determined; for ED50: Mus musculus, read-out: Horiz. Screen ED50
Protocol: Some of the compounds of the invention were tested for their ability to act as general CNS agents and particularity as skeletal muscle relaxants and hypnotics/sedatives (Coughenour, L. L. et al. Pharm. Biochem. Behav. 1977, 6, 351). Male CD1 mice, fasted for at least 16 hours but allowed access to water except during the period of observation, were placed on a horizontally-held screen (mesh size 1/4", wire diameter approximately 1.0 mm). The screen was inverted and mice which successfully climb to the top side of the screen within one minute were selected for testing. Selected mice were weighed and divided into equal groups. Test compounds or vehicle were administered to those mice parenterally. At a pre-determined interval (or intervals) after administration, the animals were tested for their ability to climb to the top side of the inverted screen (pass the test). Activity is reported as the percent reduction in the number of animals that pass the test in each treatment group relative to the corresponding vehicle-treated group. Percent Reduction=100×([Percent Pass in Vehicle Group]-[Percent Pass in Test Group]/Percent Pass in Vehicle Group). Test compounds which produce a 50% or greater reduction in the number passing the test were considered active. ED50 values of the active compounds were calculated by the method of probits (Finney, D. J. 1971. Probit Analysis. London: Cambridge University Press) and are listed in Tables 1 to 5.

[5] = Horizontal Screen Test for Determining Benzodiazepine Antagonism; format: in vivo, male CD1 mice; conditions: mice; for percent antagonism: given parenterally with chlordiazepoxide (28 mg/kg, sc), values above 0 considered active
Protocol: Some of the compounds of the invention were tested for their ability to antagonize the locomotor discoordinating property of chlordiazepoxide. Male CD1 mice, fasted for at least 16 hours but allowed access to water except during the period of observation, were placed on a horizontally-held screen (mesh size 1/4", wire diameter approximately 1.0 mm). The screen was inverted and mice which successfully climb to the top side of the screen within one minute were selected for testing. Selected mice were weighed and divided into equal groups. Test compounds or vehicle were administered to those mice parenterally at the same time as chlordrazepoxide (28 mg/kg, sc). At a pre-determined interval (or intervals) after administration, the animals were tested for their ability to climb to the top side of the inverted screen (pass the test). Activity is reported as the percent antagonism of the number of animals that fail the test in each treatment group relative to the corresponding chlordiazepoxide-treated group. Percent Antagonism =100×[(Percent Fail in Chlordiazepoxide Group)-(Percent Fail in Test Group)/Percent Fail in Chlordiazepoxide Group]. […] The percent antagonism values for the compounds of the present invention that were tested are as follows: CP 113=0, CP 53=0, CP 59=0,CP 102=0,[…],CP 7=17,CP 8=17,CP 9=30,CP 10=30, CP 11=92, CP 12=92, CP 13=100. Compounds having values above 0 were considered active as agents for treating drug overdoses, particularly overdoses of benzodiazepine.

[6] = Screens in which the excluded compounds were tested (not specified); conditions: compounds excluded from formula I
[7] = Table 1, ip, clonic convulsions after sc CD90 metrazol, >30 = active dose not determined, read-out: Metrazol (ip) ED50
[8] = Table 1, ip, minimum effective dose, >10 = active dose not determined, read-out: Conflict (ip) MED
[9] = Table 1, 25° C., 10-20 min, >10,000 = not active
[10] = Table 1, ip, clonic convulsions after sc CD90 metrazol, >30 = active dose not determined
[11] = Table 1, ip, minimum effective dose, >10 = active dose not determined

## O=C1CCN2C(=C1C(=O)Nn1cnnc1)Nc1ccccc12 [compound 42]
[1]; [7]
  ED50: > 10 mg/kg
[2]; [8]
  minimal effective dose: > 10 mg/kg
[3]; [9]
  IC50: 2700 nM
[4]
  ED50: 300 mg/kg

## O=C(Nc1ccc(O)cc1)C1=C(O)CCn2c1nc1ccccc12 [CP 10, 1,2-Dihydro-3-hydroxy-N-(4-hydroxyphenyl)pyrido(1,2-a)benzimidazole-4-carboxamide]
[5]
  percent antagonism: 30%

## O=C1CCN2C(=C1C(=O)NC1CCNCC1)Nc1ccccc12 [compound 58]
[1]; [7]
  ED50: > 10 mg/kg
[2]; [8]
  minimal effective dose: > 10 mg/kg
[3]; [9]
  IC50: > 10000 nM
[4]
  ED50: 100 mg/kg

## O=C1CCN2C(=C1C(=O)Nc1ccncc1F)Nc1ccccc12 [compound 97]
[1]; [7]
  ED50: 1 mg/kg
[2]; [8]
  minimal effective dose: 10 mg/kg
[3]; [9]
  IC50: 53 nM
[4]
  ED50: > 10 mg/kg

## O=C(NCc1ccncc1)C1=C(O)CCn2c1nc1ccccc12 [CP 59, 1,2-Dihydro-3-hydroxy-N-(4-pyridylmethyl)pyrido(1,2-a)benzimidazole-4-carboxamide]
[5]
  percent antagonism: 0%

## NC(=O)c1ccc(NC(=O)C2=C3Nc4ccccc4N3CCC2=O)cc1 [compound 90]
[1]; [7]
  ED50: > 10 mg/kg
[2]; [8]
  minimal effective dose: > 10 mg/kg
[3]; [9]
  IC50: 110 nM
[4]
  ED50: > 10 mg/kg

## O=C(Nc1ccncc1)C1=C(O)CCn2c1nc1ccc(Cl)cc12 [8-chloro-1,2-dihydro-3-hydroxy-N-(4-pyridyl)-pyrido(1,2-a)benzimidazole-4-carboxamide]
[6]
  biological activity in the screens in which they have been tested: none of these compounds has exhibited biological activity

## CNC(=O)C1=C(O)CCn2c1nc1ccccc12 [CP 102, 1,2-Dihydro-3-hydroxy-N-methyl-pyrido(1,2-a)benzimidazole-4-carboxamide]
[5]
  percent antagonism: 0%

## C[n+]1ccc(NC(=O)C2=C3Nc4ccccc4N3CCC2=O)cc1 [compound 56]
[1]; [7]
  ED50: > 10 mg/kg
[2]; [8]
  minimal effective dose: > 10 mg/kg
[3]; [9]
  IC50: 6300 nM
[4]
  ED50: 100 mg/kg

## Cc1cccc(C)c1NC(=O)C1=C2Nc3ccccc3N2CCC1=O [compound 19]
[1]; [7]
  ED50: > 30 mg/kg
[2]; [8]
  minimal effective dose: > 10 mg/kg
[3]; [9]
  IC50: 7700 nM
[4]
  ED50: 300 mg/kg

## O=C1CCN2C(=C1C(=O)Nc1cccc(F)c1)Nc1ccccc12 [compound 95]
[1]; [7]
  ED50: > 10 mg/kg
[2]; [8]
  minimal effective dose: > 10 mg/kg
[3]; [9]
  IC50: 160 nM
[4]
  ED50: > 10 mg/kg

## O=C(Nc1ccccc1C(F)(F)F)C1=C(O)CCn2c1nc1ccccc12 [1,2-dihydro-3-hydroxy-N-(2-trifluoromethylphenyl)-pyrido(1,2-a)benzimidazole-4-carboxamide]
[6]
  biological activity in the screens in which they have been tested: none of these compounds has exhibited biological activity

## O=C1CCN2C(=C1C(=O)Nc1ccc([N+](=O)[O-])cc1)Nc1ccccc12 [CP 9]
[5]
  percent antagonism: 30%

## COc1ccc2c(c1)nc1n2CCC(O)=C1C(=O)Nc1ccccc1 [CP 12, 1,2-Dihydro-3-hydroxy-7-methoxy-N-(phenyl)pyrido(1,2-a)benzimidazole-4-carboxamide]
[5]
  percent antagonism: 92%

## N-(2-Fluorophenyl)-3-hydroxypyrido(1,2-a)benzimidazol-4-carboxamide [CP 139]
[1]; [10]
  Metrazol (ip) ED50: > 300 mg/kg
[2]; [11]
  Conflict (ip) MED: > 10 mg/kg
[3]; [9]
  IC50: > 10000 nM
[4]
  Horiz. Screen ED50: 300 mg/kg

## O=C(NC1CCCCC1)C1=C(O)CCn2c1nc1ccccc12 [CP 7, N-Cyclohexyl-1,2-dihydro-3-hydroxy-pyrido(1,2-a)benzimidazole-4-carboxamide]
[5]
  percent antagonism: 17%

## COc1ccc(NC(=O)C2=C(O)CCn3c2nc2cc(OC)ccc23)cc1 [CP 13, 1,2-Dihydro-3-hydroxy-7-methoxy-N-(4-methoxyphenyl)pyrido(1,2-a)benzimidazole-4-carboxamide]
[5]
  percent antagonism: 100%

## O=C1CCN2C(=C1C(=O)Nc1ncncn1)Nc1ccccc12 [CP 53]
[5]
  percent antagonism: 0%

## COc1ccc(NC(=O)C2=C(O)CCn3c2nc2ccccc23)cc1OC [CP 8, 1,2-Dihydro-N-(3,4-dimethoxyphenyl)-3-hydroxy-pyrido(1,2-a)benzimidazole-4-carboxamide]
[5]
  percent antagonism: 17%

## CNC1=Nc2ccc(Cl)cc2C(c2ccccc2)=[N+]([O-])C1 [chlordiazepoxide, reference compound]
[5]; chlordiazepoxide 28 mg/kg, sc
  impairment of the ability to pass the inverted screen test: impairs the ability of all animals to pass this test

## CCCCc1ccc(NC(=O)C2=C3Nc4ccccc4N3CCC2=O)cc1 [compound 17]
[1]; [7]
  ED50: > 10 mg/kg
[3]; [9]
  IC50: > 10000 nM
[4]
  ED50: 300 mg/kg

## O=C1CCN2C(=C1C(=O)Nc1cnccn1)Nc1ccccc12 [compound 63]
[1]; [7]
  ED50: > 10 mg/kg
[2]; [8]
  minimal effective dose: > 10 mg/kg
[3]; [9]
  IC50: 360 nM

## O=C1CCN2C(=C1C(=O)Nc1nncs1)Nc1ccccc12 [compound 69]
[1]; [7]
  ED50: > 10 mg/kg
[2]; [8]
  minimal effective dose: > 10 mg/kg
[3]; [9]
  IC50: 300 nM

## NC(=O)C1=C2Nc3ccccc3N2CCC1=O [compound 29]
[1]; [7]
  ED50: > 3 mg/kg
[2]; [8]
  minimal effective dose: 10 mg/kg
[3]; [9]
  IC50: 2400 nM

## CN(C)c1ccc(NC(=O)C2=C3Nc4ccccc4N3CCC2=O)cc1 [compound 24]
[1]; [7]
  ED50: 3 mg/kg
[2]; [8]
  minimal effective dose: 3 mg/kg
[3]; [9]
  IC50: 270 nM

## O=C1CCN2C(=C1C(=O)Nc1ccccc1F)Nc1ccccc12 [compound 20]
[1]; [7]
  ED50: 0.1 mg/kg
[2]; [8]
  minimal effective dose: 1 mg/kg
[3]; [9]
  IC50: 1.7 nM

## O=C1CCN2C(=C1C(=O)Nc1ncc[nH]1)Nc1ccccc12 [compound 99]
[1]; [7]
  ED50: > 30 mg/kg
[2]; [8]
  minimal effective dose: > 10 mg/kg
[3]; [9]
  IC50: 185 nM

## O=C1CCN2C(=C1C(=O)Nc1c(F)c(F)nc(F)c1F)Nc1ccccc12 [compound 55]
[1]; [7]
  ED50: > 10 mg/kg
[2]; [8]
  minimal effective dose: > 10 mg/kg
[3]; [9]
  IC50: 350 nM

## Cc1cc(N(C)C)ccc1NC(=O)C1=C2Nc3ccccc3N2CCC1=O [compound 85]
[1]; [7]
  ED50: 10 mg/kg
[2]; [8]
  minimal effective dose: > 10 mg/kg
[3]; [9]
  IC50: 4000 nM

## Phenyl-1,2-dihydro-3-hydroxypyrido(1,2-a)benzimidazole-4-carboxylate [CP 118]
[1]; [10]
  Metrazol (ip) ED50: 3 mg/kg
[2]; [11]
  Conflict (ip) MED: 10 mg/kg
[3]; [9]
  IC50: 41 nM

## O=C1CCN2C(=C1C(=O)Nc1ccccc1F)Nc1cc(F)ccc12 [compound 108]
[1]; [7]
  ED50: < 1 mg/kg
[2]; [8]
  minimal effective dose: 10 mg/kg
[3]; [9]
  IC50: 2 nM

## Phenyl-1,2-dihydro-3-hydroxypyrido(1,2-a)benzimidazole-4-carboxthiolate [CP 119]
[1]; [10]
  Metrazol (ip) ED50: 30 mg/kg
[2]; [11]
  Conflict (ip) MED: 10 mg/kg
[3]; [9]
  IC50: 43 nM

## CN1C2=C(C(=O)Nc3c(F)cc(F)cc3F)C(=O)CCCN2c2ccccc21 [compound 157]
[1]; Table 5, parenteral, clonic convulsions, read-out: Antimetrazol ED50
  ED50: > 10 mg/kg
[2]; Table 5, minimum effective dose, read-out: Conflict MED
  minimal effective dose: > 10 mg/kg
[3]; Table 5
  IC50: 53 nM

## O=C1CCN2C(=C1C(=O)Nc1ccncc1)Nc1cc(Cl)ccc12 [compound 82]
[1]; [7]
  ED50: 3 mg/kg
[2]; [8]
  minimal effective dose: > 10 mg/kg
[3]; [9]
  IC50: 380 nM

## O=C1CCN2C(=C1C(=O)Nc1c(F)cc(F)cc1F)Nc1cc(Cl)ccc12 [compound 104]
[1]; [7]
  ED50: 1 mg/kg
[2]; [8]
  minimal effective dose: 10 mg/kg
[3]; [9]
  IC50: 13 nM

## Cc1cccc2c1NC1=C(C(=O)Nc3ccccc3F)C(=O)CCN12 [compound 94]
[1]; [7]
  ED50: 1 mg/kg
[2]; [8]
  minimal effective dose: < 10 mg/kg
[3]; [9]
  IC50: 96 nM

## CSc1ccc(NC(=O)C2=C3Nc4ccccc4N3CCC2=O)cc1 [compound 23]
[1]; [7]
  ED50: 10 mg/kg
[2]; [8]
  minimal effective dose: > 10 mg/kg
[3]; [9]
  IC50: 400 nM

## O=C(Nc1ccccc1F)C1=C(O)CCn2c1nc1cc(Cl)ccc12 [CP 113, 7-Chloro-1,2-dihydro-3-hydroxy-N-(2-fluorophenyl)-pyrido(1,2-a)benzimidazole-4-carboxamide]
[5]
  percent antagonism: 0%
